Here are results for five compounds from BindingDB's records for doi:10.1016/S0960-894X(97)00406-X (1997).

Structures are written as SMILES. Structures can show the parent of a compound that is named as a salt.

By Ki is commonly meant a dissociation constant, usually derived from enzyme kinetics or from competition with a known ligand. Read a high Ki as lower affinity.

The nature of the test: Compound was evaluated for the inhibition of Opioid receptor delta 1 binding to guinea pig brain membranes, using 0.2 nM [3H]naltrindole as radioligand.
With `CN(C(=O)Cc1ccc(Cl)c(Cl)c1)[C@H](CN1CCCC1)c1cccc(NC(=S)Nc2ccc(-c3c4ccc(=O)cc-4oc4cc(O)ccc34)c(C(=O)O)c2)c1` [5-{3-[3-((S)-1-{[2-(3,4-Dichloro-phenyl)-acetyl]-methyl-amino}-2-pyrrolidin-1-yl-ethyl)-phenyl]-thioureido}-2-(6-hydroxy-3-oxo-3H-xanthen-9-yl)-benzoic acid], the Ki was determined as 0.898 nM. This lies in the sub-nanomolar range.

As to `CN(C(=O)Cc1ccc(Cl)c(Cl)c1)C(CN1CCCC1)c1cccc(NC(=S)Nc2ccc(-c3c4ccc(=O)cc-4oc4cc(O)ccc34)c(C(=O)O)c2)c1` (stereo not given) [5-{3-[3-(1-{[2-(3,4-Dichloro-phenyl)-acetyl]-methyl-amino}-2-pyrrolidin-1-yl-ethyl)-phenyl]-thioureido}-2-(6-hydroxy-3-oxo-3H-xanthen-9-yl)-benzoic acid], the Ki is 1.8 nM.

The compound `CC(=O)Nc1cccc([C@H](CN2CCCC2)N(C)C(=O)Cc2ccc(Cl)c(Cl)c2)c1` [N-[(R)-1-(3-Acetylamino-phenyl)-2-pyrrolidin-1-yl-ethyl]-2-(3,4-dichloro-phenyl)-N-methyl-acetamide; hydrochloride] returned a Ki of 3070 nM.

In turn, `CC(=O)Nc1cccc([C@@H](CN2CCCC2)N(C)C(=O)Cc2ccc(Cl)c(Cl)c2)c1` [N-[(S)-1-(3-Acetylamino-phenyl)-2-pyrrolidin-1-yl-ethyl]-2-(3,4-dichloro-phenyl)-N-methyl-acetamide; hydrochloride] returned an inhibitory constant (Ki) of 14 nM.

On to `CN(C(=O)Cc1ccc(Cl)c(Cl)c1)[C@@H](CN1CCCC1)c1cccc(NC(=S)Nc2ccc(-c3c4ccc(=O)cc-4oc4cc(O)ccc34)c(C(=O)O)c2)c1` [5-{3-[3-((R)-1-{[2-(3,4-Dichloro-phenyl)-acetyl]-methyl-amino}-2-pyrrolidin-1-yl-ethyl)-phenyl]-thioureido}-2-(6-hydroxy-3-oxo-3H-xanthen-9-yl)-benzoic acid], for which the affinity, expressed as Ki, was 86 nM.
